Columns and labels:
Tenebrio molitor [1] = assay: Growth inhibition of topically dosed Tenebrio molitor larvae assessed as duration of pupal instar stage at 120 ug measured every 24 hrs for 60 days; type: functional
Tenebrio molitor [2] = assay: Growth inhibition of topically dosed Tenebrio molitor larvae assessed as imaginal molt inhibition at 120 ug; type: functional

SMILES	Activity (Tenebrio molitor [1]) [days]	Inhibition (Tenebrio molitor [2]) [%]
COC(=O)/C(=C/CCc1ccoc1)CC/C=C(\CC[C@H](O)C(C)(C)O)C(=O)OC	12.1	–
COC(=O)/C(=C/CC/C(=C\CCc1ccoc1)C(=O)OC)CCC=C(C)C	7.4	34.3
CC(C)=CCC/C(=C\CC/C(=C\CCC1=CCOC1=O)C(=O)O)C(=O)O	5.09	24.1
CC(C)=CCC/C(=C\CC/C(=C\CCc1ccoc1)C(=O)O)C(=O)O	10.7	33.6
CC(C)=CCC[C@](O)(CO)[C@H]1CC/C(=C\CCc2ccoc2)CO1	16.2	14.4
CC(C)=CCC/C(=C/CC/C(=C\CCc1ccoc1)C(=O)O)C(=O)O	4.7	–
CC(C)=CCC/C(=C\CC/C(=C\CCc1ccoc1)CO)CO	5.3	–
COC(=O)/C(=C\CC/C(=C\CCc1ccoc1)C(=O)OC)CC[C@H](O)C(C)(C)O	10	–
COC(=O)/C(=C/CCc1ccoc1)CC/C=C1\CC[C@H](C(C)(C)O)OC1=O	11.2	–
COC(=O)/C(=C\CC/C(=C\CCc1ccoc1)C(=O)OC)CC[C@@H](O)C(C)(C)O	11.2	–
COC(=O)/C(=C/CCc1ccoc1)CC/C=C(\CC[C@@H](O)C(C)(C)O)C(=O)OC	12	–
COC(=O)/C(=C\CC/C(=C\CCc1ccoc1)C(=O)OC)CCC=C(C)C	6	–
CC(C)=CCC[C@@](O)(CO)[C@@H]1CC/C(=C\CCc2ccoc2)CO1	12	–
CC(C)=CCC[C@](O)(CO)[C@H]1CC[C@@]2(CO1)OC2CCc1ccoc1 (single isomer, unassigned)	9.9	30.8
CC(C)=CCC[C@@]1(CO)OC1CC[C@@]1(CO)OC1CCc1ccoc1 (single isomer, unassigned)	12.7	–
CC(C)=CCC[C@@](O)(CO)[C@@H]1CC[C@]2(CO1)OC2CCc1ccoc1 (single isomer, unassigned)	10.6	–

— ChEMBL document CHEMBL1144788, “Insect growth regulatory effects of linear diterpenoids and derivatives from Baccharis thymifolia” (2008)
